These results are taken from BindingDB's records for PubMed 11454905 (Eli Lilly, 2001).

For the assay, the target named is Metabotropic glutamate receptor 3 (Rattus norvegicus, UniProt P31422).

Residues, ends and D or L forms follow the SMILES beside them. A value given as a limit tells only on which side of the number the result lay.

Chain of Metabotropic glutamate receptor 3 (P31422 whole entry): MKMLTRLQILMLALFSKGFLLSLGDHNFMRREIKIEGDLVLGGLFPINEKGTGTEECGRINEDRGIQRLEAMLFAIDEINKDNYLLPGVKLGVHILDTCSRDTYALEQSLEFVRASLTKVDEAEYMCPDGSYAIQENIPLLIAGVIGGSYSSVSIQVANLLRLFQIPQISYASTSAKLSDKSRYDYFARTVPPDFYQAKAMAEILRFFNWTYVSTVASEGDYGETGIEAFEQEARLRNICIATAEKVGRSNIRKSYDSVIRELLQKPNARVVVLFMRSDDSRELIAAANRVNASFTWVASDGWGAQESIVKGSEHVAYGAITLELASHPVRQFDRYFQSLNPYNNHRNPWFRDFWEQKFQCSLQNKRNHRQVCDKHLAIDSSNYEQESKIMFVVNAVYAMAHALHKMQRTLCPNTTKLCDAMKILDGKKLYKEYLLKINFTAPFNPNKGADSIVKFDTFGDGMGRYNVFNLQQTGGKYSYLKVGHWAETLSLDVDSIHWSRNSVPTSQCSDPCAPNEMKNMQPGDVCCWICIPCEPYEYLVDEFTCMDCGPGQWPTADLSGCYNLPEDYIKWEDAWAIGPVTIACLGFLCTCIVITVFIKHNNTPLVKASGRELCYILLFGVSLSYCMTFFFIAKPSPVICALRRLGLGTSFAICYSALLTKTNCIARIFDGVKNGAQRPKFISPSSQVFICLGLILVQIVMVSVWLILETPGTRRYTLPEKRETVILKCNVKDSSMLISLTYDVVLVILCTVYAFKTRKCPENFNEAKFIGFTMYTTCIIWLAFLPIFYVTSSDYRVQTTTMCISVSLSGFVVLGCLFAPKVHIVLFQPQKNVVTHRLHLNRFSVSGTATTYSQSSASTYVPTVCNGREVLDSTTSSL

The term Ki denotes the equilibrium dissociation constant of an inhibitor or competing ligand from its target. Low values mean a stronger hold on the target, high ones a looser hold on the target. `N[C@@H](CCP(=O)(O)O)C(=O)O` had a Ki of more than 10 µM.
For the molecule `CC(N)(C(=O)O)c1ccc(P(=O)(O)O)cc1` (configuration not stated), the Ki was more than 10 µM.
`O=C(O)[C@H]1[C@H]2CN[C@H](C(=O)O)[C@H]21` gave a Ki of more than 10 µM.
Molecule `C[C@@](N)(C(=O)O)c1ccc(C(=O)O)cc1` (racemic) showed a Ki of more than 10 µM.
As to `N[C@@]1(C(=O)O)CC[C@H](C(=O)O)C1` [1S, 3R-ACPD], the Ki was more than 10 µM.
On to `N[C@@H](Cn1oc(=O)[nH]c1=O)C(=O)O` [2-amino-3-(3,5-dioxo[1,2,4]oxadiazolidin-2-yl)propionic acid], for which the Ki was more than 10 µM.
For `N[C@@]1(C(=O)O)CN[C@@H](C(=O)O)C1` [2R, 4R-APDC], affinity was put at a Ki of 2.73 µM.
In the case of `N[C@@]1(C(=O)O)CC[C@H](CC(=O)O)C1` [(1S,3S)-HOMO-ACPD] it was 8.69 µM; in that of `N[C@@]1(C(=O)O)CC[C@H]2[C@H](C(=O)O)[C@H]21` [(2S,6S)-2-Amino-bicyclo[3.1.0]hexane-2,6-dicarboxylic acid], more than 10 µM; in that of `NC(C(=O)O)c1ccc(P(=O)(O)O)cc1` (configuration not stated) [Amino-(4-phosphono-phenyl)-acetic acid(RS-PPG)], more than 10 µM.
On to `N[C@H](CP(=O)(O)O)C(=O)O` [CAS_23052-80-4], for which the Ki is more than 10 µM.
In turn, `Nc1nc(O)c2ncn(COC(CO)CO)c2n1` [CAS_82410-32-0] gave an inhibition constant (Ki) of more than 10 µM.
Turning to `NC(Cn1cnc2c(=O)[nH]c(=O)[nH]c21)(C(=O)O)C1CC1C(=O)O` (configuration not stated) [CAS_5311260], the inhibition constant (Ki) worked out at 0.0008 µM.
As for `N[C@H](C(=O)O)C1[C@@H](C(=O)O)[C@@H]1C(=O)O` (some centres not stated) [DCG-IV], the inhibition constant Ki is 0.061 µM.
`N[C@@H](CC(=O)O)C(=O)O` [L-Aspartic acid, 2] came in with an inhibition constant (Ki) of more than 10 µM.
`N[C@H](C(=O)O)[C@H]1C[C@H]1C(=O)O` [L-CCG-IV] displayed an inhibition constant (Ki) of 0.334 µM.
In the case of `N[C@@H](CCC(=O)O)C(=O)O` [L-Glutamic acid] it was more than 10 µM; in that of `N[C@@H](C[C@@H](CCCC(c1ccccc1)c1ccccc1)C(=O)O)C(=O)O` [LY307452], 2.01 µM.
In turn, `N[C@@]1(C(=O)O)CO[C@H]2[C@H](C(=O)O)[C@H]21` [LY379268] came in with a Ki of 0.0065 µM.
Under `CC(=O)N[C@@H](CC(=O)O)C(=O)N[C@@H](CCC(=O)O)C(=O)O` [[3H]NAAG] (Ac-Asp-Glu-OH) stands more than 10 µM; under `NC(CCC(=O)O)C(=O)O` (configuration not stated) [glutamic acid dianion], 0.09 µM; under `O=C(O)[C@H]1CN[C@H](C(=O)O)C1` [t-PDC], more than 10 µM.
